pIC50: −log10 of the molar value.

In the assay the target is Full-length inactive AKT1 (Homo sapiens, UniProt P31749). In words: Inactive Akt Alpha Screen Assay. It counts as biochemical. To be noted: values not marked with "*"; read-out: Akt1 IC50, (AlphaScreen). Put shortly: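 AlphaScreen read-out (excitation 640 nm, emission 570 nm) after 90 min incubation at room temperature in the dark. Signal comes from crosstide phosphorylation by AKT1, which was activated by added PDK1, MAPKAPK2, ATP and lipid vesicles, captured via phospho-AKT substrate antibody and streptavidin beads.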
Full-length inactive AKT1, sequence (P31749 whole entry): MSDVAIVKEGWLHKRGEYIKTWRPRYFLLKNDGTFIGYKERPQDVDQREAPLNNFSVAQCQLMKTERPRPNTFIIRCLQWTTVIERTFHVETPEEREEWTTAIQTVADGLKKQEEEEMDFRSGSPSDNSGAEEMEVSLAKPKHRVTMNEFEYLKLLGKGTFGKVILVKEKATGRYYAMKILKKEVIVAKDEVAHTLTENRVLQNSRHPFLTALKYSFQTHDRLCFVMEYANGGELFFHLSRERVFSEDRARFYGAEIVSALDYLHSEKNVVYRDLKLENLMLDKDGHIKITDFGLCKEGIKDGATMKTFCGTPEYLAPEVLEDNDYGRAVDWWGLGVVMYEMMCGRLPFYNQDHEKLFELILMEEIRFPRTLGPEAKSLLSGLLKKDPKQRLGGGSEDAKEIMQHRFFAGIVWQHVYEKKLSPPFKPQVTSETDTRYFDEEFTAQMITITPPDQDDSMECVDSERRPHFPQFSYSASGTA
(In general: In Alpha technology, singlet oxygen from a donor bead excites a nearby acceptor bead.)
Regarding `Cc1noc(C)c1-c1ccc2nc(-c3cccnc3N)n(-c3ccc(CNC(=O)c4cccc(F)c4)cc3)c2n1` [Example 310, N-(4-(2-(2-aminopyridin-3-yl)-5-(3,5-dimethylisoxazol-4-yl)-3H-imidazo[4,5-b]pyridin-3-yl)benzyl)-3-fluorobenzamide], the pIC50 (commonly −log10 of the IC50, conventionally taken in molar units) was 7.10.

In the case of `Nc1ncccc1-c1nc2ccc(-c3c[nH]c(=O)[nH]c3=O)nc2n1-c1ccc(CNC(=O)c2cccc(F)c2)cc1` [Example 311, N-(4-(2-(2-aminopyridin-3-yl)-5-(2,4-dioxo-1,2,3,4-tetrahydropyrimidin-5-yl)-3H-imidazo[4,5-b]pyridin-3-yl)benzyl)-3-fluorobenzamide], the pIC50 was 7.54. The same measure for `Nc1ncccc1-c1nc2ccc(-c3ccc(C(=O)O)o3)nc2n1-c1ccc(CNC(=O)c2cccc(F)c2)cc1` [Example 312, 5-(2-(2-aminopyridin-3-yl)-3-(4-((3-fluoro-benzamido)methyl)phenyl)-3H-imidazo[4,5-b]pyridin-5-yl)furan-2-carboxylic acid]: 7.47; for `CS(=O)(=O)Nc1ccccc1-c1ccc2nc(-c3cccnc3N)n(-c3ccc(CNC(=O)c4cccc(F)c4)cc3)c2n1` [Example 313, N-(4-(2-(2-aminopyridin-3-yl)-5-(2-(methylsulfonamido)phenyl)-3H-imidazo[4,5-b]pyridin-3-yl)benzyl)-3-fluorobenzamide]: 6.92; for `NCc1ccc(-c2ccc3nc(-c4cccnc4N)n(-c4ccc(CNC(=O)c5cccc(F)c5)cc4)c3n2)cc1` [Example 314, N-(4-(5-(4-(aminomethyl)phenyl)-2-(2-aminopyridin-3-yl)-3H-imidazo[4,5-b]pyridin-3-yl)benzyl)-3-fluorobenzamide]: 7.60. For the compound `C[S+]([O-])c1ccc(-c2ccc3nc(-c4cccnc4N)n(-c4ccc(CNC(=O)c5cccc(F)c5)cc4)c3n2)cc1` (stereo not drawn) [Example 315, N-(4-(2-(2-aminopyridin-3-yl)-5-(4-(methylsulfinyl)phenyl)-3H-imidazo[4,5-b]pyridin-3-yl)benzyl)-3-fluorobenzamide], the pIC50 is 7.44. For the compound `Nc1ncccc1-c1nc2ccc(-c3ccco3)nc2n1-c1ccc(CNC(=O)c2cccc(F)c2)cc1` [Example 316, N-(4-(2-(2-aminopyridin-3-yl)-5-(furan-2-yl)-3H-imidazo[4,5-b]pyridin-3-yl)benzyl)-3-fluorobenzamide], the pIC50 is 7.46. The same measure for `Nc1ncccc1-c1nc2ccc(-c3ccsc3)nc2n1-c1ccc(CNC(=O)c2cccc(F)c2)cc1` [Example 317, N-(4-(2-(2-aminopyridin-3-yl)-5-(thiophen-3-yl)-3H-imidazo[4,5-b]pyridin-3-yl)benzyl)-3-fluorobenzamide]: 7.62. As for `Cc1ccc2cc(NC(=O)Cc3ccc(-n4c(-c5cccnc5N)nc5cc(-c6cccnc6)cnc54)cc3)ccc2n1` [Example 318, 2-(4-(2-(2-aminopyridin-3-yl)-6-(pyridin-3-yl)-3H-imidazo[4,5-b]pyridin-3-yl)phenyl)-N-(2-methylquinolin-6-yl)acetamide], the pIC50 was 7.72. The same measure for `CC(=O)Nc1ccc(NC(=O)Cc2ccc(-n3c(-c4cccnc4N)nc4cc(-c5cccnc5)cnc43)cc2)cc1` [Example 319, N-(4-acetamidophenyl)-2-(4-(2-(2-aminopyridin-3-yl)-6-(pyridin-3-yl)-3H-imidazo[4,5-b]pyridin-3-yl)phenyl)acetamide]: 7.66; for `Nc1ncccc1-c1nc2cc(-c3cccnc3)cnc2n1-c1ccc(CC(=O)Nc2cccc(F)c2)cc1` [Example 320, 2-(4-(2-(2-aminopyridin-3-yl)-6-(pyridin-3-yl)-3H-imidazo[4,5-b]pyridin-3-yl)phenyl)-N-(3-fluorophenyl)acetamide]: 7.24. The same measure for `Cc1cc2nc(-c3cccnc3N)n(-c3ccc(CNC(=O)c4cccc(F)c4)cc3)c2nc1C` [Example 321, N-(4-(2-(2-aminopyridin-3-yl)-5,6-dimethyl-3H-imidazo[4,5-b]pyridin-3-yl)benzyl)-3-fluorobenzamide]: 7.12; for `Cc1cc2nc(-c3cccnc3N)n(-c3ccc(CNC(=O)c4ccccc4)cc3)c2nc1C` [Example 322, N-(4-(2-(2-aminopyridin-3-yl)-5,6-dimethyl-3H-imidazo[4,5-b]pyridin-3-yl)benzyl)benzamide]: 7.11. The same measure for `CC(=O)Nc1cccc(NC(=O)Cc2ccc(-n3c(-c4cccnc4N)nc4ccc(C)nc43)cc2)c1` [Example 323, N-(3-acetamidophenyl)-2-(4-(2-(2-aminopyridin-3-yl)-5-methyl-3H-imidazo[4,5-b]pyridin-3-yl)phenyl)acetamide]: 6.82.

With `CC(=O)Nc1cccc(-c2ccc3nc(-c4cccnc4N)n(-c4ccc(CNS(=O)(=O)c5cn(C)cn5)cc4)c3n2)c1` [Example 325, N-(3-(2-(2-aminopyridin-3-yl)-3-(4-((1-methyl-1H-imidazole-4-sulfonamido)methyl)phenyl)-3H-imidazo[4,5-b]pyridin-5-yl)phenyl)acetamide], the pIC50 was 7.48.

On to `N#Cc1ccc(-c2ccc3nc(-c4cccnc4N)n(-c4ccc(CNC(=O)c5cccc(F)c5)cc4)c3n2)cc1` [Example 326, N-(4-(2-(2-aminopyridin-3-yl)-5-(4-cyanophenyl)-3H-imidazo[4,5-b]pyridin-3-yl)benzyl)-3-fluorobenzamide], for which the pIC50 was 6.19.

`Nc1ccccc1-c1ccc2nc(-c3cccnc3N)n(-c3ccc(CNC(=O)c4cccc(F)c4)cc3)c2n1` [Example 327, N-(4-(5-(2-aminophenyl)-2-(2-aminopyridin-3-yl)-3H-imidazo[4,5-b]pyridin-3-yl)benzyl)-3-fluorobenzamide]: the pIC50 is 7.04. The same measure for `Nc1ncccc1-c1nc2ccc(-c3ccccc3O)nc2n1-c1ccc(CNC(=O)c2cccc(F)c2)cc1` [Example 328, N-(4-(2-(2-aminopyridin-3-yl)-5-(2-hydroxyphenyl)-3H-imidazo[4,5-b]pyridin-3-yl)benzyl)-3-fluorobenzamide]: 7.33. The same measure for `Nc1ncccc1-c1nc2ccc(-c3ccc(F)cc3)nc2n1-c1ccc(CNC(=O)c2cccc(F)c2)cc1` [Example 329, N-(4-(2-(2-aminopyridin-3-yl)-5-(4-fluorophenyl)-3H-imidazo[4,5-b]pyridin-3-yl)benzyl)-3-fluorobenzamide]: 6.44; for `Nc1ncccc1-c1nc2ccc(-c3ccc(O)cc3)nc2n1-c1ccc(CNC(=O)c2cccc(F)c2)cc1` [Example 330, N-(4-(2-(2-aminopyridin-3-yl)-5-(4-hydroxyphenyl)-3H-imidazo[4,5-b]pyridin-3-yl)benzyl)-3-fluorobenzamide]: 6.92; for `Nc1ncccc1-c1nc2ccc(-c3ccc4cc[nH]c4c3)nc2n1-c1ccc(CNC(=O)c2cccc(F)c2)cc1` [Example 331, N-(4-(2-(2-aminopyridin-3-yl)-5-(1H-indol-6-yl)-3H-imidazo[4,5-b]pyridin-3-yl)benzyl)-3-fluorobenzamide]: 6.38. The same measure for `Nc1ncccc1-c1nc2ccc(-c3ccc4c(c3)OCCO4)nc2n1-c1ccc(CNC(=O)c2cccc(F)c2)cc1` [Example 332, N-(4-(2-(2-aminopyridin-3-yl)-5-(2,3-dihydro-benzo[b][1,4]dioxin-6-yl)-3H-imidazo[4,5-b]pyridin-3-yl)benzyl)-3-fluorobenzamide]: 6.80; for `Nc1ncccc1-c1nc2ccc(-c3ccncc3)nc2n1-c1ccc(CNC(=O)c2cccc(F)c2)cc1` [Example 334, N-(4-(2-(2-aminopyridin-3-yl)-5-(pyridin-4-yl)-3H-imidazo[4,5-b]pyridin-3-yl)benzyl)-3-fluorobenzamide]: 7.44. With `N#Cc1cccc(-c2ccc3nc(-c4cccnc4N)n(-c4ccc(CNC(=O)c5cccc(F)c5)cc4)c3n2)c1` [Example 335, N-(4-(2-(2-aminopyridin-3-yl)-5-(3-cyanophenyl)-3H-imidazo[4,5-b]pyridin-3-yl)benzyl)-3-fluorobenzamide], the pIC50 was 6.74.

Regarding `COC(=O)c1ccc(-c2ccc3nc(-c4cccnc4N)n(-c4ccc(CNC(=O)c5cccc(F)c5)cc4)c3n2)cc1` [Example 336, methyl 4-(2-(2-aminopyridin-3-yl)-3-(4-((3-fluorobenzamido)methyl)phenyl)-3H-imidazo[4,5-b]pyridin-5-yl)benzoate], the pIC50 was 6.49.

For `Nc1ncccc1-c1nc2ccc(-c3cncnc3)nc2n1-c1ccc(CNC(=O)c2cccc(F)c2)cc1` [Example 337, N-(4-(2-(2-aminopyridin-3-yl)-5-(pyrimidin-5-yl)-3H-imidazo[4,5-b]pyridin-3-yl)benzyl)-3-fluorobenzamide], the pIC50 was 7.09.

Regarding `CC(=O)Nc1cccc(-c2ccc3nc(-c4cccnc4N)n(-c4ccc(C5(NC(=O)OC(C)(C)C)CCC5)cc4)c3n2)c1` [Example 340, tert-butyl (1-(4-(5-(3-acetamidophenyl)-2-(2-aminopyridin-3-yl)-3H-imidazo[4,5-b]pyridin-3-yl)phenyl)cyclobutyl)carbamate], the pIC50 was 6.46.

Consider `CNC(=O)Cc1ccc(-n2c(-c3cccnc3N)nc3ccc(-c4cccc(NC(C)=O)c4)nc32)cc1` [Example 341, 2-(4-(5-(3-acetamidophenyl)-2-(2-aminopyridin-3-yl)-3H-imidazo[4,5-b]pyridin-3-yl)phenyl)-N-methylacetamide], for which the pIC50 is 7.49. The same measure for `CC(=O)Nc1ccc(NC(=O)Cc2ccc(-n3c(-c4cccnc4N)nc4cc(F)cnc43)cc2)cc1` [Example 342, N-(4-acetamidophenyl)-2-(4-(2-(2-aminopyridin-3-yl)-6-fluoro-3H-imidazo[4,5-b]pyridin-3-yl)phenyl)acetamide]: 7.21. On to `CC(=O)Nc1cccc(NC(=O)Cc2ccc(-n3c(-c4cccnc4N)nc4cc(C)cnc43)cc2)c1` [Example 343, N-(3-acetamidophenyl)-2-(4-(2-(2-aminopyridin-3-yl)-6-methyl-3H-imidazo[4,5-b]pyridin-3-yl)phenyl)acetamide], for which the pIC50 was 6.96.

The values above are taken from patent publication US8501770B2 (ArQule, Inc., priority 2009, dated 2013).
